Activity calls are given as the source filed them. No cut-off for these calls is given here.
What was measured:
Spodoptera litura [1] = assay: Antifeedant activity against Spodoptera litura in compound treated cork borer from fresh sweet potato leaves assessed as leaf disk consumed at 26.5 degC; type: functional
Spodoptera litura [2] = assay: Antifeedant activity against Spodoptera litura in compound treated cork borer from fresh sweet potato leaves assessed as leaf disk consumed at 0.33 mg/cm2 at 26.5 degC; type: functional
[3] = Lipophilicity, log k of the compound from retention time in ODS HPLC

Compound	ED50 (Spodoptera litura [1])	pED50 (Spodoptera litura [1])	Activity (Spodoptera litura [2]) [%]	log k [3]
COc1cc(OC)c2c(c1)OCC2=O [4,6-DIMETHOXYCOUMARANONE]	3.87 umol/cm2	5.41		
Cc1cc(C)c2c(c1)OCC2=O [4,6-DIMETHYLCOUMARANONE]	0.68 umol/cm2	6.17		
O=C1COc2ccccc21 [3-COUMARANONE]	inactive		<40	
C/C=C(/C)C(=O)O[C@H]1C[C@@H](OC(C)=O)[C@@]2(C)CO[C@H]3[C@H]4O[C@@H]5C[C@@H](c6ccoc6)C(C)=C5[C@@]4(C)[C@H](CC(=O)OC)[C@]1(C)[C@@H]32 [SALANNIN]	0.066 umol/cm2	7.18		
O=C1/C(=C/c2cccc(Br)c2)Oc2ccccc21	4.21 umol/cm2	5.38		1.05
CCOc1cc(/C=C2\Oc3ccccc3C2=O)ccc1O	1.96 umol/cm2	5.71		0.382
Cc1cc(C)c2c(c1)O/C(=C\c1ccc(C)c(C)c1)C2=O	inactive		<40	
O=C1/C(=C/c2cccc(Cl)c2)Oc2ccccc21	inactive		<40	
COc1ccccc1/C=C1\Oc2ccccc2C1=O [(Z)-2'-METHOXYAURONE]	inactive		<40	
COc1cc(OC)c2c(c1)O/C(=C\c1ccc(C)c(C)c1)C2=O	inactive		<40	
O=C1/C(=C/c2ccccc2)Oc2ccccc21 [(Z)-AURONE]	inactive		<40	
O=C1/C(=C/c2ccc(O)c(O)c2)Oc2ccccc21	inactive		<40	
COc1ccc(/C=C2\Oc3cc(C)cc(C)c3C2=O)cc1OC	1.02 umol/cm2	5.99		
COc1cc(/C=C2\Oc3ccccc3C2=O)cc(OC)c1	3.45 umol/cm2	5.46		0.741
COc1cc2c(c(OC)c1OC)C(=O)CO2 [4,5,6-TRIMETHOXYCOUMARANONE]	0.41 umol/cm2	6.39		
COc1ccc(/C=C2\Oc3ccccc3C2=O)cc1OC [3',4'-DIMETHOXY-AURONE]	0.86 umol/cm2	6.07		0.741
COc1cc(/C=C2\Oc3ccccc3C2=O)cc(OC)c1OC	inactive		<40	
COc1cccc(/C=C2\Oc3ccccc3C2=O)c1 [3'-METHOXY-AURONE]	1.01 umol/cm2	6		0.737
COc1cc(OC)c2c(c1)O/C(=C\c1ccccc1)C2=O	0.85 umol/cm2	6.07		0.56
COc1ccc(/C=C2\Oc3cc(OC)c(OC)c(OC)c3C2=O)cc1OC	inactive		<40	
O=C1/C(=C/c2ccc3c(c2)OCO3)Oc2ccccc21	1.61 umol/cm2	5.79		0.624
COc1cc(OC)c2c(c1)O/C(=C\c1ccc(OC)c(OC)c1)C2=O [4,6,3',4'-TETRAMETHOXYAURONE]	0.12 umol/cm2	6.92		0.277
COc1cc(/C=C2\Oc3ccccc3C2=O)ccc1O	inactive		<40	
COc1ccc(/C=C2\Oc3ccccc3C2=O)cc1 [4'-METHOXY-AURONE]	2.03 umol/cm2	5.69		0.689

Reference: ChEMBL document CHEMBL3044933, “Synthesis and insect antifeedant activity of aurones against Spodoptera litura larvae” (J Agric Food Chem, 2007)
